Measurements as given in patent publication US20240197761A1, “FUCOSYLATION AND IMMUNE MODULATION IN CANCER” (H. LEE MOFFITT CANCER CENTER AND RESEARCH INSTITUTE, INC., priority 2021, published 2024).

Tested on: HLA-DRB1 in WM793 and 1205Lu cells
Test: Cell surface fucosylation and HLA-DRB1 (flow cytometry), HLA-DRB1 mRNA (qRT-PCR) and protein (IB) in melanoma cells
Assay type: cell-based, human
Settings: 250 μM, 72 h
Text: FIGS. 18A-18F show N-linked fucosylation of HLA-DRB1 at N48 regulates its cell surface localization and is required for tumor suppression and increased TIL abundance. (a) (upper) Amino acid sequence alignments showing conservation of predicted N- and O-linked fucosylation sites in human HLA-DRB1 (N48 and T129) and mouse H2EB1 (N46 and T147). Structural modeling of the HLA-DRB1:HLA-DM (lower left) and CD4:HLA-DRB1:TCR (lower right) complexes. Potential glycosylation sites, N48 and T129, of HLA-DR1 beta chain are shown as sticks. CD4 (cyan), HLA-DRB1 (yellow), antigen peptide (magenta), and TCR (green)(lower right). (b) HLA-DRB1 peptide fragment identified by nano-LC/MS to be fucosylated on N48, with predicted HexNAc(4)Hex(3)Fuc(1) glycan structure shown above. (c) Lectin pull down (LPD) and IB analyses of EV and V5-tagged wild-type HLA-DRB1 (WT)-, HLA-DRB1 N48G (N48G)-, and HLA-DRB1 T129A (T129A)-expressing WM793 cells. (d) DMSO- or fucosyltransferase inhibitor (FUTi)-treated WM793 cells immunofluorescently stained for endogenous HLA-DRB1, KDEL (ER marker), and DAPI (20× magnification). (e) Flow cytometric analysis for relative cell surface fucosylation (upper) and cell surface HLA-DRB1 (upper middle), qRT-PCR analysis of relative HLA-DRB1 mRNA levels (lower middle), and IB analysis of HLA-DRB1 protein levels (lower) in WM793 and 1205Lu cells treated with DMSO (D), 250 μM FUTi (i), or 250 μM L-fuc (LF). (f) Volumetric growth curves for shNT (non-targeting shRNA)+EV (control SW1 tumors)(upper left) or shEB1 tumors reconstituted with EV (upper right), EB1 WT (lower left), or EB1 N46G (lower right) in C3H/HeN mice. Control (grey) or L-fucose supplemented water (red, 100 mM; ▾=initiated supplementation) was provided ad libitum. The tumor growth curves are means±SEM from ≥7 mice per group. *=p<0.05.
FIGS. 19A and 19B show nano-LC/MS spectral identification of fucosylated HLA-DRB1 peptide; and the effects of modulating fucosylation on HLA-DRB1 localization, total protein, and mRNA levels (a) nano-LC/MS/MS spectra showing fucosylated HLA-DRB1 peptide (arrow). (b) Flow cytometric analysis for relative cell surface fucosylation (upper) and cell surface HLA-DRB1 levels (upper middle), qRT-PCR analysis of relative HLA-DRB1 mRNA levels (lower middle), and IB analysis of HLA-DRB1 protein levels (lower) in indicated melanoma cell lines treated with DMSO (D), 250 μM FUTi (i), or 250 μM L-fuc (LF). *=p<0.05.
HLA-DRB1, and PD-L1: Indicated cells were treated for 72 h with DMSO, 250 μM fucosyltransferase inhibitor (FUTi) (Millipore Sigma (St. Louis, MO)), or 250 μM of L-fucose (Biosynth (Oak Terrace, IL)). After 72 h, cells were stained with 0.1 μM PKH26 (Millipore Sigma (St. Louis, MO)) prior to fixation in 4% formaldehyde solution. The cells were stained with anti-HLA-DRB1 and fluorescein AAL, or anti-human or anti-mouse PD-L1 overnight. The following day the cells were washed 3 times prior to adding AlexaFluor 594 donkey anti-rabbit. Cells were washed 3 times and then subject to flow cytometric analyses using a FACSCalibur (BD Biosciences (San Jose, CA)). Samples were analyzed using FlowJo analysis software (BD Biosciences (San Jose, CA)). Median values of DRB1 and AAL were normalized to PKH26 values and statistical analysis was performed using GraphPad Prism.
Cells were lysed on ice in RIPA lysis buffer (25 mM Tris-HCl pH 7.6, 150 mM NaCl, 5 mM EDTA, 1% NP-40 or 1% Triton X-100, 1% sodium deoxycholate, 0.1% SDS in diH20+protease and phosphatase inhibitors (ThermoFisher Scientific (Waltham, MA)), briefly sonicated, pelleted, and the resulting lysates were normalized by protein concentration using DC assay (BioRad Laboratories, (Hercules, CA)). The indicated samples were subjected to (12%) SDS-PAGE and immunoblot analysis using the indicated antibodies. Immunoblot imaging and analysis was performed using either an Odyssey FC scanner and ImageStudio (LiCor Biosciences, Lincoln, NE) or film. […]

SMILES	HLA-DRB1 mRNA and protein levels	cell surface HLA-DRB1	cell surface fucosylation
CC(=O)OC1O[C@@H](C)[C@@H](OC(C)=O)[C@@H](OC(C)=O)[C@@H]1F (stereo partly drawn) [FUTi, 2F-peracteyl-fucose, reference compound]	remained unchanged	decreased	decreased
C[C@H](O)[C@@H](O)[C@@H](O)[C@H](O)C=O [L-fucose]	remained unchanged	increased	increased
